Experimental data reported in US10278957B2, “Opioid agonist peptides and uses thereof” (Protagonist Therapeutics, Inc., priority 2017, dated 2019).
Square brackets hold non-standard residues; d marks the D form. Peptide text beside a SMILES is read from it. Dmt = Cc1cc(O)cc(C)c1C[C@H](N)C(=O)O; β3hF = N[C@H](CC(=O)O)Cc1ccccc1; Sar = CNCC(=O)O

How the values were obtained:
μ-opioid receptor (MOR) = target: T1, μ-opioid receptor (MOR) (Homo sapiens, UniProt P35372); test: MOR agonist cAMP assay (HitHunter cAMP, forskolin-stimulated); assay type: cell-based
T1 construct: host or cells: cAMP Hunter CHO-K1 OPRM1 Gαi cell line
T1 sequence (P35372 whole entry): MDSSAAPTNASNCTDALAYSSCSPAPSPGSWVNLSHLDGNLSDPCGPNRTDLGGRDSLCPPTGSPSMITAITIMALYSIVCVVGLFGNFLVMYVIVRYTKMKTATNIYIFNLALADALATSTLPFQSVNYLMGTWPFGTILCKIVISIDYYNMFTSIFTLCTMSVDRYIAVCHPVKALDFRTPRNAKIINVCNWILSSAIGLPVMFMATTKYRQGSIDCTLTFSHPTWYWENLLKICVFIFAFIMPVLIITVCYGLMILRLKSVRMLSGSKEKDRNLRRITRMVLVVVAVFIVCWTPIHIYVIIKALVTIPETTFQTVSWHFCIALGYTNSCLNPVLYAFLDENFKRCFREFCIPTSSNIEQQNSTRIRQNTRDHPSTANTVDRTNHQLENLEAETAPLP
How it was run: (§1)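 CHO-K1 Gαi cells expressing OPRM1 or OPRD1 were exposed 30 min at 37° C to 11-point threefold agonist dilutions, in duplicate, with 20 uM forskolin final. cAMP quantified by EFC chemiluminescent competitive immunoassay against cAMP standards. EC50 by four-parameter Hill nonlinear regression.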

[1] = SIF assay (stability in simulated intestinal fluid); assay type: in vitro ADME; settings: for half-life at 20 μM: simulated intestinal fluid (SIF) with pancreatin, simulated intestinal fluid, pH 6.8, pancreatin, 37° C.
Procedure: SIF was prepared by adding 6.8 g of monobasic potassium phosphate and 10.0 g of pancreatin to 1.0 L of water. After dissolution, the pH was adjusted to 6.8 using NaOH. DMSO stocks (2 mM) were prepared for each of the opioid agonist peptides. Aliquots of the DMSO solutions were dosed into […], each containing 0.5 mL of SIF, which was pre-warmed to 37° C. The final opioid agonist peptide concentration was 20 μM. The vials were kept in a benchtop Thermomixer® for the duration of the experiment. At each timepoint (0, 5, 10, 20, 40, 60, or 360 minutes or 24 hours), 1.0 mL of acetonitrile containing 1% formic acid was added to one vial to terminate the reaction. Samples were stored at 4° C. until the end of the experiment. After the final timepoint was sampled, the tubes were mixed and then centrifuged at 3,000 rpm for 10 minutes. Aliquots of the supernatant were removed, diluted 1:1 into distilled water containing an internal standard, and analyzed by LCMS/MS. The percent of the opioid agonist peptide remaining at each timepoint was calculated based on the peak area response ratio of opioid agonist peptide to the internal standard. Time 0 was set to 100%, and all later timepoints were calculated relative to time 0. Half-lives were calculated by fitting to a first-order exponential decay equation using Graph pad.

[2] = system: gastro intestinal motility; test: Gastro Intestinal Motility Charcoal Transit Assay; assay type: in vivo; settings: Table 4; orally dosed; charcoal transit
Procedure: Animals were treated with 0.2 mL croton oil 96 and 72 hours before the gastro intestinal transit (GIT) assay. Animals were fasted overnight prior to charcoal meal dosing. Test and control articles were administered (PO, IP) followed by an oral dose of aqueous suspension of 5% charcoal in 10% gum arabic. […] Charcoal meal test were given 30 min post-test article dose. Twenty minutes after administration of the charcoal test meal, animals were euthanized via CO2 inhalation followed by cervical dislocation, and the small and large intestines were examined to evaluate GI transit and motility. GI transit is expressed as a percentage of the distance traveled by the charcoal test meal divided by the length of the intestine.

δ-opioid receptor (DOR) = target: T2, δ-opioid receptor (DOR) (Homo sapiens, UniProt P41143); test: DOR agonist cAMP assay (HitHunter cAMP, forskolin-stimulated); assay type: cell-based
T2 construct: host or cells: cAMP Hunter CHO-K1 OPRD1 Gαi cell line
T2 sequence (P41143 whole entry): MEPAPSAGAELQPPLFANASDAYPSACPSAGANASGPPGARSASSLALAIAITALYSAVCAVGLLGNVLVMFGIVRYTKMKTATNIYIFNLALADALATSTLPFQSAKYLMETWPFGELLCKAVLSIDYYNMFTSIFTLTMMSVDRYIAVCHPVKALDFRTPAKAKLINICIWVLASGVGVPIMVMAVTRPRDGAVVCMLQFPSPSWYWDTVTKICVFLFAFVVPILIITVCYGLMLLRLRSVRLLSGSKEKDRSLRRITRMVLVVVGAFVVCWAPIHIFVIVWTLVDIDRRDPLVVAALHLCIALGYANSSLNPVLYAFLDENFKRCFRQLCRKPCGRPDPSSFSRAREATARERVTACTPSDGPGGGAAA
How it was run: as §1

[3] = SGF assay (stability in simulated gastric fluid); assay type: in vitro ADME; settings: pig, simulated gastric fluid (SGF) with porcine pepsin, pH 2, pepsin, 37° C.
Procedure: SGF was prepared by adding 20 mg NaCl, 32 mg porcine pepsin (MP Biochemicals, catalog 02102599), and 70 μl HCl to 10 ml water (final pH=2). Aliquots of SGF (0.5 ml each) were pre-warmed at 37° C. To start the reaction, 1 μl of opioid agonist peptide stock solution (10 mM in DMSO) was added to 0.5 ml SGF and thoroughly mixed such that the final peptide concentration was 20 μM. The reactions were incubated at 37° C. with gentle shaking.
At each timepoint (0, 15, 30, 60 min) 50 µl aliquots were removed and added to 200 ul of acetonitrile containing 0.1% formic acid to quench the reaction. Samples were stored at 4° C. until the end of the experiment and centrifuged at 10,000 rpm for 5 minutes. Aliquots of the supernatant were removed, diluted 1:1 into distilled water containing internal standard, and analyzed by LCMS/MS. The percent of the opioid agonist peptide remaining at each timepoint was calculated based on the peak area response ratio of the opioid agonist peptide to the internal standard. Time 0 was set to 100%, and all later timepoints were calculated relative to time 0. Half-lives were calculated by fitting to a first-order exponential decay equation using GraphPad.

Row | SMILES | Ratio (MOR EC50/DOR EC50) (μ-opioid receptor (MOR); Table 4, MOR EC50 divided by DOR EC50) | SIF (min) ([1]; Table 4, SIF half-life) | % inhibition of GI motility [2] | EC50 (μ-opioid receptor (MOR)) [nM] | EC50 (δ-opioid receptor (DOR)) [nM] | half-life at 20 μM [3] [h] | half-life at 20 μM [1] [h]
1 | Cc1cc(O)cc(C)c1C[C@H](N)C(=O)N[C@H](C)C(=O)N[C@@H](C)C(=O)N[C@H](CC(=O)N(C)CC(N)=O)Cc1ccccc1 [Seq. ID 66, DMT-(D)Ala-Ala-(b-homoPhe)-Sar-NH2] (H-[Dmt][dA]A[β3hF][Sar]-NH2) | * (for ratio, * indicates between 0.1 and 0.3) | **** (for SIF half-life values, **** indicates >1290) | * (for % inhibition of GI motility, * indicates between 30% and 50%) | – | – | – | –
2 | Cc1cc(C(N)=O)cc(C)c1C[C@H](N)C(=O)N[C@H](C)C(=O)NCC(=O)N[C@H](CC(=O)N(C)CC(N)=O)Cc1ccccc1 [compound 70] | – | – | – | < 1 | < 1 | 0.167 to 6 | > 24
3 | Cc1cc(O)cc(C)c1C[C@H](N)C(=O)N[C@H](C)C(=O)NC(C)(C)C(=O)N[C@H](CC(=O)N(C)CC(N)=O)Cc1ccccc1 [compound 72] | – | – | – | < 1 | < 1 | 0.167 to 6 | > 24
4 | Cc1cc(C(N)=O)cc(C)c1C[C@H](N)C(=O)N[C@@H](C(=O)NCC(=O)N[C@H](CC(=O)N(C)CC(N)=O)Cc1ccccc1)[C@H](C)O [compound 76] | – | – | – | 1 to 10 | < 1 | 0.167 to 6 | > 24
5 | Cc1cc(C(N)=O)cc(C)c1C[C@H](N)C(=O)N[C@H](C)C(=O)NCC(=O)N[C@H](CC(=O)N(C)CC(=O)O)Cc1ccccc1 [compound 79] | – | – | – | < 1 | < 1 | > 24 | > 24
6 | Cc1cc(O)cc(C)c1C[C@H](N)C(=O)NCC(=O)NCC(=O)N[C@H](CC(=O)N(C)CC(N)=O)Cc1ccccc1 [compound 81] (H-[Dmt]GG[β3hF][Sar]-NH2) | – | – | – | < 1 | < 1 | > 24 | > 24
7 | Cc1cc(O)cc(C)c1C[C@H](N)C(=O)N[C@@H](C(=O)NCC(=O)N[C@H](CC(=O)N(C)CC(N)=O)Cc1ccccc1)[C@H](C)O [compound 82] | – | – | – | < 1 | < 1 | > 24 | > 24
8 | Cc1cc(O)cc(C)c1C[C@H](N)C(=O)N[C@H](Cc1ccc(O)cc1)C(=O)NCC(=O)N[C@H](CC(=O)N(C)CC(N)=O)Cc1ccccc1 [compound 84] | – | – | – | < 1 | < 1 | > 24 | > 24
9 | Cc1cc(C(N)=O)cc(C)c1C[C@H](N)C(=O)N[C@H](Cc1ccc(O)cc1)C(=O)NCC(=O)N[C@H](CC(=O)N(C)CC(N)=O)Cc1ccccc1 [compound 85] | – | – | – | < 1 | < 1 | 6 to 24 | > 24
10 | Cc1cc(C(N)=O)cc(C)c1C[C@H](N)C(=O)N[C@H](C)C(=O)NCC(=O)N[C@H](CC(=O)N(C)[C@@H](CC(C)C)C(=O)O)Cc1ccccc1 [compound 92] | – | – | – | 1 to 10 | < 1 | > 24 | > 24
11 | Cc1cc(C(N)=O)cc(C)c1C[C@H](N)C(=O)N[C@H](C)C(=O)NCC(=O)N[C@H](CC(=O)N(C)[C@@H](C)C(=O)O)Cc1ccccc1 [compound 93] | – | – | – | < 1 | < 1 | > 24 | > 24
12 | Cc1cc(C(N)=O)cc(C)c1C[C@H](N)C(=O)N[C@H](C)C(=O)NCC(=O)N[C@H](CC(=O)N(C)[C@H](C(=O)O)C(C)C)Cc1ccccc1 [compound 96] | – | – | – | < 1 | < 1 | > 24 | > 24
